Assay results taken from publication PMC9611727, “Optimization of a Novel Mandelamide-Derived Pyrrolopyrimidine Series of PERK Inhibitors” (Pharmaceutics, 2022).

Experiments:
Experiment in all cases: scanMAX kinase panel
Assay type in all cases: binding
BLK = target: T1, BLK (Homo sapiens, UniProt P51451); conditions: read-out: % Control; for remaining binding at 1 µM: 1000 nM
T1 construct: purchased DiscoverX scanMAX
Excerpt: (§1) Supplemental Table S2. scanMAXSM Kinome Assay Results. Complete tabulated data of all 468 kinases from the panel, including
(§2) 403 wild-type and 65 mutant isoforms. […] Cmpd 11 and Cmpd 24

CDK11 = target: T2, CDK11 (Homo sapiens, UniProt Q9BWU1); conditions: read-out: % Control; for remaining binding at 1 µM: 1000 nM
T2 construct: purchased DiscoverX scanMAX
T2 sequence (Q9BWU1 whole entry): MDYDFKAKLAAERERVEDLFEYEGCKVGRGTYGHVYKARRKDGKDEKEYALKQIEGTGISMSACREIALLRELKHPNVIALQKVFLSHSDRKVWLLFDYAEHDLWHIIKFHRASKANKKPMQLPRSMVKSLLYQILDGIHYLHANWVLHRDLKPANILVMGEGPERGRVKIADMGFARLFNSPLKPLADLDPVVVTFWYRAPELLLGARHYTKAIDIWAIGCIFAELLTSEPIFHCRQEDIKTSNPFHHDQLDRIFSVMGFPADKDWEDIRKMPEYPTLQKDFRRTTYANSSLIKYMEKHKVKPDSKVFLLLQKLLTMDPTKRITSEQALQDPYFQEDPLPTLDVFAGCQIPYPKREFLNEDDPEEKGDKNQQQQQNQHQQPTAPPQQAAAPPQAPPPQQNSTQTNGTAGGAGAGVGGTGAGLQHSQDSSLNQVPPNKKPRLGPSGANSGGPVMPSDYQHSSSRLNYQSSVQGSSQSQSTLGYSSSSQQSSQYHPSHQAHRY
Excerpt: as §1, §2

FLT3(ITD) = tested on: FLT3(ITD)
Excerpt: as §1, §2

FLT3(ITD,D835V) = tested on: FLT3(ITD,D835V)
Excerpt: as §1, §2

FLT3(ITD,F691L) = tested on: FLT3(ITD,F691L)
Excerpt: as §1, §2

KIT = target: T3, KIT (Homo sapiens, UniProt P10721); conditions: read-out: % Control; for remaining binding at 1 µM: 1000 nM
T3 construct: purchased DiscoverX scanMAX
T3 sequence (P10721 26-976): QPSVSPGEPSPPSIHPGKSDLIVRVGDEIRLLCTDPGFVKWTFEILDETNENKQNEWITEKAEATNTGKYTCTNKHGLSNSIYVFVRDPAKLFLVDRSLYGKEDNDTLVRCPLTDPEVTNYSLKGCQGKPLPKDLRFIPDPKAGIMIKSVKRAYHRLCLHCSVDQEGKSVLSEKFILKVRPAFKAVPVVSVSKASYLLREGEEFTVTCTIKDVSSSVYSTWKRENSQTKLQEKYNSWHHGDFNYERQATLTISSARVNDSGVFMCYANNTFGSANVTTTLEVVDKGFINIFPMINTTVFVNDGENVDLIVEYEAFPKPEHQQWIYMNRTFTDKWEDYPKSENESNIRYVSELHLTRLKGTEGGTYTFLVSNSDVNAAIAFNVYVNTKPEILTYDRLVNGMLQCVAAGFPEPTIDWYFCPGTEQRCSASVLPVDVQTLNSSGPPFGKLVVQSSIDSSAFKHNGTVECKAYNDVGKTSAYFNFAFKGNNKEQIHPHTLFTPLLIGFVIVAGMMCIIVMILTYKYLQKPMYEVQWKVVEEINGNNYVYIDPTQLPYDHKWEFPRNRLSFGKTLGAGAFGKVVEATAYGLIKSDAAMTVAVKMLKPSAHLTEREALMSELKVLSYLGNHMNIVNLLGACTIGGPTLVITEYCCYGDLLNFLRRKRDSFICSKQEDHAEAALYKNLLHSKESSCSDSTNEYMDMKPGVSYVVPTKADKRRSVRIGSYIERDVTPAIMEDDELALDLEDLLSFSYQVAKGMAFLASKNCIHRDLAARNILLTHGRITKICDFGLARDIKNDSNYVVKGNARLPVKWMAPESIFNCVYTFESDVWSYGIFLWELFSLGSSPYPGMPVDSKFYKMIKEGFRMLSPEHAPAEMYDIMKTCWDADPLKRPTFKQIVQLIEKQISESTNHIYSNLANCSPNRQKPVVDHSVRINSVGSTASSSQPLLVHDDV
Excerpt: as §1, §2

MAP3K2 = target: T4, MAP3K2 (Homo sapiens, UniProt Q9Y2U5); conditions: read-out: % Control; for remaining binding at 1 µM: 1000 nM
T4 construct: purchased DiscoverX scanMAX
T4 sequence (Q9Y2U5 1-619): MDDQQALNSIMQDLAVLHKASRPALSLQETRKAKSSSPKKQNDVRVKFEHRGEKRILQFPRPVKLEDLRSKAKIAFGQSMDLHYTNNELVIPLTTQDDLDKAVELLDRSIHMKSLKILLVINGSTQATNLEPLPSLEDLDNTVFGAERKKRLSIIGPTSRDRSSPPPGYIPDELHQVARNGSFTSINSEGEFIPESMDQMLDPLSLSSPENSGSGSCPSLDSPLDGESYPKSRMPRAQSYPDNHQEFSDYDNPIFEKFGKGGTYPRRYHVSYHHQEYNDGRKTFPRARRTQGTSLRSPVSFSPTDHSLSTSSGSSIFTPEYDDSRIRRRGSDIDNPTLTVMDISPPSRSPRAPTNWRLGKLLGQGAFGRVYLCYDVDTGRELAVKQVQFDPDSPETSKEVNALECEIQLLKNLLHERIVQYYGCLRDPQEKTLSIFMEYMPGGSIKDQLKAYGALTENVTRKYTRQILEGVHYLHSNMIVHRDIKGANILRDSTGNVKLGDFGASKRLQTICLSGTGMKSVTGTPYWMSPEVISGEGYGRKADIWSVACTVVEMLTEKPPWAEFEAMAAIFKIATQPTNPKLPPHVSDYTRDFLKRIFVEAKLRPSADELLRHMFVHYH
Excerpt: as §1, §2

NEK5 = target: T5, NEK5 (Homo sapiens, UniProt Q6P3R8); conditions: read-out: % Control; for remaining binding at 1 µM: 1000 nM
T5 construct: purchased DiscoverX scanMAX
T5 sequence (Q6P3R8 1-708): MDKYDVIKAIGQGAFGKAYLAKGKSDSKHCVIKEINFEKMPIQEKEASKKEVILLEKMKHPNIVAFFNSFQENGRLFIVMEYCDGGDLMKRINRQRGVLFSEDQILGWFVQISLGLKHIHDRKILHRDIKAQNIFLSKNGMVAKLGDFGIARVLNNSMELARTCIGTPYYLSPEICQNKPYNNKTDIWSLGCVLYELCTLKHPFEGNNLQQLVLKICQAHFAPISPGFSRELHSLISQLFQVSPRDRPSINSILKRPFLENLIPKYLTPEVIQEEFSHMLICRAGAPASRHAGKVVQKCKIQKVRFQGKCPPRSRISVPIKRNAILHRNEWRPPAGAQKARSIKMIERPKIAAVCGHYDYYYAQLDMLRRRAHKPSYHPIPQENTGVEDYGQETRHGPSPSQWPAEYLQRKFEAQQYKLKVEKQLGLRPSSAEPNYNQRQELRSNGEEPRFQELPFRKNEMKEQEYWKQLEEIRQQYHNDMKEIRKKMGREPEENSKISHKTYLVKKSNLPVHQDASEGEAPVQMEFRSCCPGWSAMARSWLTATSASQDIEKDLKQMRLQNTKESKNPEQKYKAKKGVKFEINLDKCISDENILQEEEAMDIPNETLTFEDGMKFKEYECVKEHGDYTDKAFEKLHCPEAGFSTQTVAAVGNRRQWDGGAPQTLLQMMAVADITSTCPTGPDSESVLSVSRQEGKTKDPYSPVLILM
Excerpt: as §1, §2

PIK4CB = target: T6, PIK4CB (Homo sapiens, UniProt Q9UBF8); conditions: read-out: % Control; for remaining binding at 1 µM: 1000 nM
T6 construct: purchased DiscoverX scanMAX
T6 sequence (Q9UBF8 whole entry): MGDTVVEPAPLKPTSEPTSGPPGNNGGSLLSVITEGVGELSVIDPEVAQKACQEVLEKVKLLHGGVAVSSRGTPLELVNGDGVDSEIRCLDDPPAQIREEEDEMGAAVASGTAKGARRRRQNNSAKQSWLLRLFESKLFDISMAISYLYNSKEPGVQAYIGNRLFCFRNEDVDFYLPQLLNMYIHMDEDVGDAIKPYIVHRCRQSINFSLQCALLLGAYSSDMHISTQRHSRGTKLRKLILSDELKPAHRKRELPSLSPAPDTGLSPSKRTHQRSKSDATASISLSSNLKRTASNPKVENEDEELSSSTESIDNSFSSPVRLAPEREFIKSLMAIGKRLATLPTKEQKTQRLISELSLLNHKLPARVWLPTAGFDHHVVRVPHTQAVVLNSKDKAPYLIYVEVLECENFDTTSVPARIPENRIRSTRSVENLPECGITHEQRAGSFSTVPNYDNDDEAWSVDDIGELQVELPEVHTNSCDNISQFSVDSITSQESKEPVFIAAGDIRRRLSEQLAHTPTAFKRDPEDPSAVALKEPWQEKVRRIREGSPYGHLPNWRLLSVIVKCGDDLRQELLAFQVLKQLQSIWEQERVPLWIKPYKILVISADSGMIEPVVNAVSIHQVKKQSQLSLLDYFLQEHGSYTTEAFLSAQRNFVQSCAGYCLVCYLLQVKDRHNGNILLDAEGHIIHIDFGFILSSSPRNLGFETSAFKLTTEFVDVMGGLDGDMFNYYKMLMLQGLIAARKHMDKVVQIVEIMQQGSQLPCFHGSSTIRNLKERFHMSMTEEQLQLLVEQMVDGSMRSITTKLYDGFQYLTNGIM
Excerpt: as §1, §2

RIPK2 = target: T7, RIPK2 (Homo sapiens, UniProt O43353); conditions: read-out: % Control; for remaining binding at 1 µM: 1000 nM
T7 construct: purchased DiscoverX (scanMAX panel)
T7 sequence (O43353 whole entry): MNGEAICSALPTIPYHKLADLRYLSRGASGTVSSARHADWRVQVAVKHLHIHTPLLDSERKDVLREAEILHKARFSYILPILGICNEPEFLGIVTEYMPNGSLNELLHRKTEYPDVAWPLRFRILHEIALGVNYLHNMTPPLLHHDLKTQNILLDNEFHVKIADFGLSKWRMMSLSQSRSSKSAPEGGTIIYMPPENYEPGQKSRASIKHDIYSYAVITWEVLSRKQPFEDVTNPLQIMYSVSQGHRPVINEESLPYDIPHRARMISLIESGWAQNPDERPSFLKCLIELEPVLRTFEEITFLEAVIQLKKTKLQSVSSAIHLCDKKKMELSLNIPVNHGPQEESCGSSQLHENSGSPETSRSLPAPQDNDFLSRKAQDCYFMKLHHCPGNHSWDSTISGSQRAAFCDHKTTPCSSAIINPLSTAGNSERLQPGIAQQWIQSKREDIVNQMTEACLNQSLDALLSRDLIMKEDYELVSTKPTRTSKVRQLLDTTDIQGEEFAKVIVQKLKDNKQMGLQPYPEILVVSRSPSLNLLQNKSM
Excerpt: as §1, §2

TRKB = target: T8, TRKB (Homo sapiens, UniProt Q16620); conditions: read-out: % Control; for remaining binding at 1 µM: 1000 nM
T8 construct: purchased DiscoverX (scanMAX panel)
T8 sequence (Q16620 32-822): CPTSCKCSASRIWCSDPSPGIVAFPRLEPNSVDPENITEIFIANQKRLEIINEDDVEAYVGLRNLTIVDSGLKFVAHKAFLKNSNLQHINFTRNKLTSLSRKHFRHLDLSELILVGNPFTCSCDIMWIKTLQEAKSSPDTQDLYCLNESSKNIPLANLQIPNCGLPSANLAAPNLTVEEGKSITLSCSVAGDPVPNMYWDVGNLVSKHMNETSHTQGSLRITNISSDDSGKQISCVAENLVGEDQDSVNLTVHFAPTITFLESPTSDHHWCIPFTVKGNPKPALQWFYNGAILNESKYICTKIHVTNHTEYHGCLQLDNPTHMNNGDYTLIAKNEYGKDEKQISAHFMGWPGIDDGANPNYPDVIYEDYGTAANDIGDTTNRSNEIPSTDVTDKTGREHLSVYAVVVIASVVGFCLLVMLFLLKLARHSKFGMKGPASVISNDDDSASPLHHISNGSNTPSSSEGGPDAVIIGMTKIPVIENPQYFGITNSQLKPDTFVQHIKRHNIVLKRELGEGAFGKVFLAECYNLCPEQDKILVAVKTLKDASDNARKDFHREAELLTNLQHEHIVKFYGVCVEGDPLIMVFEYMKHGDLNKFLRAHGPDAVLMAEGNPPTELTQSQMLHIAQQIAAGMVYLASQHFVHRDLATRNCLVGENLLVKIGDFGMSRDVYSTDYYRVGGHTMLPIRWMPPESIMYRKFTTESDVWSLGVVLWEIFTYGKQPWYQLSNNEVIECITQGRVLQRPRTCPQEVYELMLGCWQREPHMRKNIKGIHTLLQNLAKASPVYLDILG
Excerpt: as §1, §2

YANK2 = target: T9, YANK2 (Homo sapiens, UniProt Q9NY57); conditions: read-out: % Control; for remaining binding at 1 µM: 1000 nM
T9 construct: purchased DiscoverX (scanMAX panel)
T9 sequence (Q9NY57 whole entry): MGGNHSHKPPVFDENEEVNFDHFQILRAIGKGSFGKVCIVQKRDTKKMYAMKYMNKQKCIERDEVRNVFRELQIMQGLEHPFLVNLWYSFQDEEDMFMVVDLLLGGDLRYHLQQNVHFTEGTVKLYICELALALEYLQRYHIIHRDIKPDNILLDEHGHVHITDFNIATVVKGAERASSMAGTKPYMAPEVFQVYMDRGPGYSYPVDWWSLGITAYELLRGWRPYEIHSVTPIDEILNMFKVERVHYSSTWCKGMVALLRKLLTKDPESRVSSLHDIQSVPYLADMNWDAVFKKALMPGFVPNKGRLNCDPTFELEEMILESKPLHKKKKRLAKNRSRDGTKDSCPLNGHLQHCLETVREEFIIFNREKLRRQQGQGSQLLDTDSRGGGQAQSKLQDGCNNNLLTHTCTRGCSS
Excerpt: as §1, §2

T1 sequence (P51451 whole entry): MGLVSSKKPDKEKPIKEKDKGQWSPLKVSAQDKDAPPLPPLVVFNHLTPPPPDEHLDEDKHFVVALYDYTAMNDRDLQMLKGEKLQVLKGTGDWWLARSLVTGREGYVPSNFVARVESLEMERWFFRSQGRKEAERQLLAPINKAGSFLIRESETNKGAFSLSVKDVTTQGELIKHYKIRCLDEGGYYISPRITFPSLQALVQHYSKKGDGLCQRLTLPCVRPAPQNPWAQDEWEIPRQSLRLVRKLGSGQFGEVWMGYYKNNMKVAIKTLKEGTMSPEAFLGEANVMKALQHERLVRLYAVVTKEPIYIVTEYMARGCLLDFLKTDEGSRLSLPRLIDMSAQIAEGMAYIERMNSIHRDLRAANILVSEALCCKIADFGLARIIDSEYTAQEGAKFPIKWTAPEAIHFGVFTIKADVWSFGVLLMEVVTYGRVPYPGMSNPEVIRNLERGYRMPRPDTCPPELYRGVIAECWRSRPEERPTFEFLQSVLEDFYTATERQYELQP

SMILES	remaining binding at 1 µM (BLK) [%]	remaining binding at 1 µM (CDK11) [%]	% Control (FLT3(ITD); 1000 nM) [%]	% Control (FLT3(ITD,D835V); 1000 nM) [%]	% Control (FLT3(ITD,F691L); 1000 nM) [%]	remaining binding at 1 µM (KIT) [%]	remaining binding at 1 µM (MAP3K2) [%]	remaining binding at 1 µM (NEK5) [%]	remaining binding at 1 µM (PIK4CB) [%]	remaining binding at 1 µM (RIPK2) [%]	remaining binding at 1 µM (TRKB) [%]	remaining binding at 1 µM (YANK2) [%]	further results
Cc1cc(NC(=O)[C@H](O)c2cccc(F)c2)ccc1-c1cn(C)c2ncnc(N)c12 [Compound 11, (R)-N-(4-(4-amino-7-methyl-7H-pyrrolo[2,3-d]pyrimidin-5-yl)-3-methylphenyl)-2-(3-fluorophenyl)-2-hydroxy acetamide]	19	1	34	89	100	38	14	34	84	15	22	11	
Cc1nc(N)c2c(-c3ccc(NC(=O)[C@H](O)c4cccc(F)c4)cc3C)cn(C)c2n1 [Compound 24]	100	89	94	100	63	100	100	100	28	100	96	100	
Cc1nc(N)c2c(-c3ccc(NC(=O)[C@H](O)c4cccc(C(F)(F)F)c4)cc3C)cn(C)c2n1 [Compound 26]	91	8.2	9.4	75	42	0.65	89	96	4.3	43	18	63	remaining binding at 0.1 µM (BLK; 100 nM): 100%; remaining binding at 0.1 µM (CDK11; 100 nM): 89%; % Control (FLT3(ITD); 100 nM): 95%; % Control (FLT3(ITD,D835V); 100 nM): 100%; % Control (FLT3(ITD,F691L); 100 nM): 41%; remaining binding at 0.1 µM (KIT; 100 nM): 97%; remaining binding at 0.1 µM (MAP3K2; 100 nM): 100%; remaining binding at 0.1 µM (NEK5; 100 nM): 100%; remaining binding at 0.1 µM (PIK4CB; 100 nM): 93%; remaining binding at 0.1 µM (RIPK2; 100 nM): 91%; remaining binding at 0.1 µM (TRKB; 100 nM): 92%; remaining binding at 0.1 µM (YANK2; 100 nM): 92%
